Source: patent US9522930B2, “Chartreusin analogues” (Leibniz-Institut Für Naturstoff-Forschung Und …, priority 2012, dated 2016)
≈ marks a conversion by molar mass, not a printed value. Where two headings read alike, the source gives them in different places.

How the values were obtained:
[1] = test system: human umbilical vein endothelial cells HUVEC (ATCC CRL-1730); experiment: Growth inhibition (antiproliferative effect) of HUVEC; assay type: cell-based; details: for GI50: Homo sapiens, read-out: antiproliferative GI50, HUVEC
Procedure: (§2) Compounds were assayed against human umbilical vein endothelial cells HUVEC (ATCC CRL-1730) and human chronic myeloid leukemia cells K-562 (DSM ACC 10) for their antiproliferative effects (GI50) and against human cervix carcinoma cells HeLa (DSM ACC 57) for their cytotoxic effects (CC50) as previously described (Scherlach, K., Partida-Martinez, L. P., Dahse, H. M. & Hertweck, C. Antimitotic rhizoxin derivatives from a cultured bacterial endosymbiont of the rice pathogenic fungus Rhizopus microsporus. Journal of the American Chemical Society 128, 11529-11536 (2006)).

[2] = test system: Hs27 foreskin fibroblast cells (ATCC, CRL-1634); experiment: Growth inhibition of Hs27 in the presence or absence of light; assay type: cell-based, human; details: for GI50: Homo sapiens, 72 hours
Description: In order to verify the extraordinary in vitro photo induced activity a human foreskin fibroblast cell line (Hs27) has been chosen to evaluate the antiproliferative activity against human cells. During this assay a control group without light has been tested under standard conditions. One group was irradiated with a very homogenous LED cluster under the same conditions. […] This indicates the high potential of this new chartreusin-like structure motive as a drug for epithel cell carcinomas. Not only superficial areas like the skin in case of melanoma can be irradiated also endoscopic accessible areas like the bladder, colon, esophageal or laryngeal cancers are conceivable for a treatment.
The Hs27 foreskin fibroblast cells (ATCC, CRL-1634) were grown in RPMI 1640 (CAMBREX 12-167F) supplemented with 500 μl/l gentamicin sulfate (Cambrex 17-518Z), 10% heat inactivated fetal bovine serum (PAA A15-104), at 37° C. in plastic flasks (NUNC) in a humidified atmosphere containing 5% CO2.
The adherent cells of Hs27 were harvested at the logarithmic growth phase after soft trypsinization using 0.25% trypsin in PBS containing 0.02% EDTA (Biochrom KG L2163).
Hs27 cells were seeded with 1×10^4 cells per 0.1 mL per well of the 96-well microplates (NUNC 167008). Then, the plates were prepared with dilutions of the compounds.
The influence of the different dilutions of compounds in the absence or presence of light (distance to the cells: 4 cm) were assayed for 72 hours at 37° C. in a humidified atmosphere containing 5% CO2. After incubation time, the effect of compounds in the absence or presence of light were analyzed in compare to negative control.
For this, the adherent Hs27 cells were fixed by glutaraldehyde (MERCK 1.04239.0250) and stained with a 0.05% solution of methylene blue (SERVA 29198) for 15 min. After gentle washing, the stain was eluted by 0.2 mL of 0.33 N HCl in the wells. The optical densities were measured at 660 nm in a microplate reader (Tecan “Sunrise”, Austria). Under the experimental conditions, the signals from the methylene blue are proportional to the number of viable cells.

[3] = test system: human HT-29 colon adenocarcinoma cells (ACC 299); experiment: Growth inhibition of HT-29 in the presence or absence of light; assay type: cell-based
Procedure: (§1) The human HT-29 colon adenocarcinoma cells (ACC 299) and the human MEL-HO (ACC 62) melanoma cells were grown as previously described (Ueberschaar, N.; Dahse, H.-M.; Bretschneider, T.; Hertweck, C. Angew. Chem. Int. Ed. 2013, 52, 6185-6189).

[4] = test system: vancomycin-resistant Enterococcus (VRE); experiment: VRE assay (MIC); assay type: cell-based; details: read-out: MIC against VRE
[5] = test system: human MEL-HO (ACC 62) melanoma cells; experiment: Growth inhibition of MEL-HO in the presence or absence of light; assay type: cell-based
Procedure: as §1

[6] = test system: human chronic myeloid leukemia cells K-562 (DSM ACC 10); experiment: Growth inhibition (antiproliferative effect) of K-562; assay type: cell-based; details: for GI50: Homo sapiens, K562, read-out: antiproliferative GI50, K-562
Procedure: as §2

in vitro = details: human
Procedure: as §2

[7] = test system: defined DNA fragments (1.5 kb); experiment: Laser-induced DNA-adduct assay, gel electrophoresis with a specified DNA fragment; details: 1% agarose gel; for electrophoretic band shift of DNA fragment, irradiated: blue laser 405 nm, 20 mW, 30 sec
Procedure: However, the situation changed substantially under photoinducing conditions. A GaN laser has been used for an induced DNA-adduct assay because a laser warrants high spectral purity combined with a high power density. Furthermore, the emission wavelength (405 nm) fits to the absorption maximum of chartreusin, which is a prerequisite to efficiently activating the molecule.
For the assay defined DNA fragments (1.5 kb) were treated with either chartreusin or 1-vinylchartreusin, and the effect of blue laser irradiation was compared to negative controls incubated in the dark or with daylight.
DNA-Adduct formation was carried out using a pure specified DNA fragment with the following sequence:
8 μL of water, 2 μL of DNA (25.7 ng/μL) were either directly treated with 2 μL loading buffer or were treated additionally with 0.1 μL (1 mg/mL in DMSO) substrate. The solution was irradiated with a laser (405 nm, 20 mW) for 30 sec. and then treated with loading buffer. The DNA was loaded on 1% agarose gel with ethidium bromide operating at 120 V (FIG. 2).

[8] = test system: Mycobacterium vaccae 10670; experiment: Antimicrobial activity (MIC), test strain Mycobacterium vaccae 10670; assay type: cell-based; details: Mycolicibacterium vaccae; Test strain: Mycobacterium vaccae 10670; read-out: Antimicrobial MIC value, Mycobacterium vaccae
Description: Antimicrobial (MIC value [μM]), cytotoxic (CC50 [μM] for HeLa) and antiproliferative (GI50 [μM] for HUVEC, K-562, HT-29 and MEL-HO) activities of chartreusin and its derivatives. Test strain: Mycobacterium vaccae 10670.

[9] = test system: methicillin-resistant Staphylococcus aureus (MRSA); experiment: Antibiotic activity against MRSA; assay type: cell-based
[10] = test system: human cervix carcinoma cells HeLa (DSM ACC 57); experiment: Cytotoxicity against HeLa; details: HeLa, standard conditions
Procedure: as §2

[11] = Cytotoxicity against HeLa; details: human, HeLa cells (human cervix carcinoma, DSM ACC 57)
Procedure: as §2

[12] = Hs27, with light vs without light
[13] = Homo sapiens, HT-29, 8 h, HT-29, 420 nm, 3 × 8 h, read-out: antiproliferative GI50, HT-29, 420 nm, 3 × 8 h
[14] = Homo sapiens, HT-29, HT-29, w/o light, read-out: antiproliferative GI50, HT-29, w/o light
[15] = Homo sapiens, HT-29, HT-29, with light (blue LED), read-out: GI50 with light, HT-29
[16] = Homo sapiens, HT-29, HT-29, without light (absence of light), read-out: GI50 without light, HT-29
[17] = 8 h, read-out: antiproliferative GI50, Mel-HO, 420 nm, 3 × 8 h
[18] = read-out: antiproliferative GI50, Mel-HO, w/o light

SMILES | GI50 [1] [µM] | GI50 [3, 13] [µM] | GI50 [3, 14] [µM] | GI50 [3, 15] [µM] | GI50 [3, 16] [µM] | MIC [4] [µM] | GI50 [5, 17] [µM] | GI50 [5, 18] [µM] | GI50 [6] [µM] | electrophoretic band shift of DNA fragment, irradiated [7] | MIC [8] [µM] | also measured
CO[C@H]1[C@@H](O)[C@@H](C)O[C@H](O[C@H]2[C@H](Oc3cccc4c(O)c5c(=O)oc6ccc(C)c7c(=O)oc(c34)c5c67)O[C@H](C)[C@H](O)[C@@H]2O)[C@@H]1O [Chartreusin] | 6.24 | 7.65 | 7.96 | 7.65 | 7 to 9.4 | 9.59 to 9.76 (≈ 6.14 to 6.25 µg/mL) | 2.34 | 1.56 | 1.56 | electrophoretic properties of the DNA fragment could be fully reserved | 1.2 (≈ 0.769 µg/mL) | effect of light on antiproliferative activity, Hs27 [2, 12]: not affected by treatment with light; CC50 (in vitro): 12.6 µM
C=Cc1ccc2oc(=O)c3c(O)c4cccc(O[C@@H]5OC(C)[C@H](O)[C@H](O)C5O[C@H]5OC(C)[C@H](O)C(OC)[C@H]5O)c4c4oc(=O)c1c2c34 (stereo partly shown) [Vinylchartreusin, 1-Vinylchartreusin] | 32.8 | 0.61 | 7.05 | 0.6 | 7 to 9.4 | 9.59 to 9.76 (≈ 6.26 to 6.37 µg/mL) | 0.08 | 0.11 | 3.06 | clear band shift to a higher molecular mass | 4.8 (≈ 3.13 µg/mL) | less active than chartreusin, HUVEC ([1]; standard conditions (no photoinduction)): about 4 fold; GI50 ([2]; light or radiation study, Hs27, irradiated with LED cluster, read-out: GI50 value with light, Hs27): 0.5 µg/mL (≈ 0.766 µM); GI50 ([2]; Hs27, without light, read-out: GI50 value without light, Hs27): 6.8 µg/mL (≈ 10.4 µM); GI50 with light lower than without light, Hs27 [2, 12]: more than 10 fold; antibiotic activity against MRSA relative to chartreusin and ciprofloxacin [9]: as active as the natural product and are even more potent than the reference antibiotic ciprofloxacin; GI50 ([3]; HT-29, without light (absence of light), read-out: GI50 without light, HT-29): 7.1 µM; activity relative to chartreusin and homochartreusin, K562 ([6]; K562, standard conditions): only slightly lower than chartreusin and homochartreusin; activity relative to chartreusin and homochartreusin, HeLa [10]: only slightly lower than chartreusin and homochartreusin; CC50 [11]: 24.7 µM; electrophoretic band shift of DNA fragment, not irradiated ([7]; not irradiated (dark or daylight)): no shift
